The test system of assay [1] is DIM resistant parasites (LdDR50). Nature of the assay: DNA fragmentation assay (cell death detection ELISA), DIM resistant. It is filed as cell-based, Leishmania donovani. The settings on record: 20 µM. The procedure:
Leishmanial cells were cultured in 24-well plates and treated with 20 µM of DIM, DPDIM, DMDIM and DMODIM for different times. Samples were collected at requisite time points and subjected to measurement of DNA fragmentations. Cytoplasmic histone-associated DNA fragments (mononucleosome and oligonucleosomes) formed during apoptosis were detected using a cell death detection ELISA kit (Roche Biochemicals) by spectrophotometric measurement of microtiter plates in a Thermo MULTISKAN EX plate reader at 405 nm. The relative percentages (with respect to samples treated with micrococcal nuclease and normalized to percentage values) were plotted as units of time or drug concentrations as described previously.
The internucleosomal DNA digestion by an endogenous nuclease (genomic DNA fragmentation) is considered as a hallmark of apoptotic cell death. […] To investigate whether these derivatives also do the same, we performed the DNA fragmentation assay with wild type L. donovani AG83 promastigotes and DIM resistant parasites (Fig. 4) by ELISA as described in Materials and Methods. […] DNA fragmentation increased to 85%, 89%, 81% and 71% at 8 h of treatment in wild type parasites. The DIM resistant parasites (LdDR50) have much less effect in DNA fragmentation (13% at 6 h and 17% at 8 h) when treated with 20 µM DIM. On the other hand the extents of DNA fragmentations were 63%, 51% and 40% at 6 h treatment with DPDIM, DMDIM and DMODIM respectively. The extent of fragmentation increased to 82%, 74% and 65% after treatment for 8 h with the drugs as mentioned above.
Figure 4 DIM derivatives-induced fragmentation of genomic DNA in wild type and DIM resistant parasites. Relative percentage of DNA fragmentation measured by cell death detection ELISA kit in L. donovani promastigotes treated with DIM, DPDIM, DMDIM and DMODIM. The experiments were performed three times and representative data from one of these experiments as means ± SD.
A general note: An ELISA detects its analyte on a solid surface through an enzyme-linked reagent.

In assay [2] the test system is DIM resistant L. donovani promastigotes (DR50). Briefly: Cell viability assay, DIM resistant promastigotes. It is filed as cell-based. The settings on record: Leishmania donovani, 12 h, read-out: growth inhibited. The procedure:
(§1) L. donovani strain AG83 and DIM resistant parasite DR50 promastigotes were grown at 22°C in M199 liquid media supplemented with 10% FBS as described. Axenic amastigotes were cultured in modified M199 medium (pH 5.3) supplemented with 10 mM sodium succinate, 40 mM HEPES and 25% FCS and maintained at 37°C with 5% CO2.The effect of drugs on the viability of Leishmania parasites was determined by direct microscopic counting using light microscope (40× objective) in a haemocytometer. The cells at the exponential phase were collected and transferred into 24-well plate (3.5×10^6 cells per well). The cells were then incubated for 12 h in the presence of various concentrations of DIM, DPDIM, DMDIM and DMODIM (1, 5, 10, 20 and 50 µM). For other experiments, 10^4 cells were taken and grown in presence of the respective derivatives for a period of 30 days. For each 5 day interval, a small amount of aliquots were taken out. After incubation the cells were centrifuged and cell pellet was washed with PBS (1×) twice and finally suspended in 1 ml PBS (1×). Fifty µl of aliquot was taken, mixed with 0.4% trypan blue solution and incubated for 3 min at 22°C. One drop of the mixture was transferred to haemocytometer and the clear (live) and blue (dead) cells were counted. The total number of viable cells in aliquot was calculated by multiplying the total number of viable cells by 2 (the dilution factor for trypan blue). To obtain the total number of cells in the aliquot, total number of viable and nonviable cells were added up and multiplied by 2. Percentages of viable cells were calculated using the formula: [drawing 1]
(§2) The effects of different derivatives of DIM on cell proliferation were tested by incubating wild type and DIM resistant L. donovani promastigotes (3.5×10^6 cells/ml) with the drugs. […] The number of live promastigotes was measured by differential staining of live and dead cells using light microscope under 40× objective (Fig. 2). […]
(§3) Figure 2 Effect of DIM-derivatives on Leishmania parasites. Growth of L. donovani AG83 promastigotes (A) and DIM resistant promastigotes (B) were monitored in presence of increasing concentrations (1, 5, 10, 20 and 50 µM) of DIM, DPDIM, DMDIM and DMODIM for 12 h. […] Change in IC50 values after a prolong exposure to DIM derivatives (C) has been assessed as described in Materials and Methods. After every 5 day a small aliquot was taken out and number of viable promastigotes was counted for each concentration. IC50 values have been determined from them using Graph Pad Prsim ver 5.0 software and a graphical plot was generated over time. Growth of the parasites treated with the compounds was expressed as percentage of the viable promastigotes compared with that of control. […]

For assay [3], the system named is L. donovani AG83 promastigotes. Briefly: Cell viability assay, wild type promastigotes. It is filed as cell-based. The settings on record: Leishmania donovani, 12 h, read-out: growth inhibited. The procedure: as §1, §2, §3

Like-named read-outs stand apart in the source and are kept apart here.

For `c1ccc2c(Cc3c[nH]c4ccccc34)c[nH]c2c1` [DIM, 3, 3′-diindolyl methane, reference compound], the “fragmentation of DNA” value is on record as 13% in assay [1] (6 h) and 17% in assay [1] (8 h). Besides, the inhibition at 20 µM in assay [2] came to 20%; in assay [3] (20 µM, wild type AG83 promastigotes), 88%.

On to `c1ccc(-c2[nH]c3ccccc3c2Cc2c(-c3ccccc3)[nH]c3ccccc23)cc1` [DPDIM, 2,2′-diphenyl 3,3′-diindolyl methane], for which the figures for the “fragmentation of DNA” value in assay [1] (6 h) and in assay [1] (8 h) were 63% and 82%, respectively. The inhibition at 20 µM in assay [2] stood at 90%; in assay [3] it was 96%.

For the compound `COc1ccc2[nH]cc(Cc3c[nH]c4ccc(OC)cc34)c2c1` [DMODIM, 5,5′-dimethoxy 3,3′-diindolyl methane], the “fragmentation of DNA” value in assay [1] (6 h) was 40%; in assay [1] (8 h) it was 65%. Also, the inhibition at 20 µM came out at 65% in assay [2] and 70% in assay [3].

In the case of `Cc1[nH]c2ccccc2c1Cc1c(C)[nH]c2ccccc12` [DMDIM, 2,2′-dimethyl 3,3′-diindolyl methane], the “fragmentation of DNA” value in assay [1] (6 h) was 51%; in assay [1] (8 h), 74%. Besides, the inhibition at 20 µM in assay [2] turned out to be 85%; in assay [3] it was 83%.

The record behind these values is paper PMC3236199, “Development of Derivatives of 3, 3′-Diindolylmethane as Potent Leishmania donovani Bi-Subunit Topoisomerase IB Poisons” (PLoS ONE, 2011).
